This passage reports pest or weed control, melting point and inhibition of growth results from US20190345150A1, “MICROBIOCIDAL OXADIAZOLE DERIVATIVES” (SYNGENTA PARTICIPATIONS AG, priority 2016, published 2019).

Data set [1] relates to Puccinia recondita f. Sp. Tritici. Kind of data set: Puccinia recondita f. sp. tritici / wheat / leaf disc curative (brown rust). The conditions noted are these: foliar, 24 h, 200 ppm in the applied formulation, wheat leaf segments cv. Kanzler, curative (applied 1 day after inoculation), compared to untreated control, read-out: disease control. The data set is classed as in vivo. As for the experimental part:
Leaf disks or leaf segments of various plant species are cut from plants grown in a greenhouse. The cut leaf disks or segments are placed in multiwell plates (24-well format) onto water agar. The leaf disks are sprayed with a test solution before (preventative) or after (curative) inoculation. Compounds to be tested are prepared as DMSO solutions (max. 10 mg/ml) which are diluted to the appropriate concentration with 0.025% Tween20 just before spraying. The inoculated leaf disks or segments are incubated under defined conditions (temperature, relative humidity, light, etc.) according to the respective test system. A single evaluation of disease level is carried out 3 to 14 days after inoculation, depending on the pathosystem. Percent disease control relative to the untreated check leaf disks or segments is then calculated. Wheat leaf segments cv. Kanzler are placed on agar in multiwell plates (24-well format). The leaf segments are then inoculated with a spore suspension of the fungus. Plates were stored in darkness at 19° C. and 75% relative humidity. The formulated test compound diluted in water was applied 1 day after inoculation. The leaf segments were incubated at 19° C. and 75% relative humidity under a light regime of 12 hours light/12 hours darkness in a climate cabinet and the activity of a compound was assessed as percent disease control compared to untreated when an appropriate level of disease damage appears in untreated check leaf segments (6 to 8 days after application).

For data set [2] the test system is unchanged. Kind of data set: Puccinia recondita f. sp. tritici / wheat / leaf disc preventative (brown rust). The data set is classed as in vivo. Conditions: foliar, 200 ppm in the applied formulation, wheat leaf segments cv. Kanzler, preventative (inoculated 1 day after application), compared to untreated control, read-out: disease control. As for the experimental part:
Leaf disks or leaf segments of various plant species are cut from plants grown in a greenhouse. The cut leaf disks or segments are placed in multiwell plates (24-well format) onto water agar. The leaf disks are sprayed with a test solution before (preventative) or after (curative) inoculation. Compounds to be tested are prepared as DMSO solutions (max. 10 mg/ml) which are diluted to the appropriate concentration with 0.025% Tween20 just before spraying. The inoculated leaf disks or segments are incubated under defined conditions (temperature, relative humidity, light, etc.) according to the respective test system. A single evaluation of disease level is carried out 3 to 14 days after inoculation, depending on the pathosystem. Percent disease control relative to the untreated check leaf disks or segments is then calculated. Wheat leaf segments cv. Kanzler were placed on agar in multiwell plates (24-well format) and sprayed with the formulated test compound diluted in water. The leaf disks were inoculated with a spore suspension of the fungus 1 day after application. The inoculated leaf segments were incubated at 19° C. and 75% relative humidity (rh) under a light regime of 12 hours light/12 hours darkness in a climate cabinet and the activity of a compound was assessed as percent disease control compared to untreated when an appropriate level of disease damage appears in untreated check leaf segments (7 to 9 days after application).

Data set [3] deals with Glomerella laqenarium (Colletotrichum laqenarium). Kind of data set: Glomerella lagenarium liquid culture / cucumber / preventative (anthracnose). The data set is classed as cell-based. Conditions: 20 ppm in the applied formulation, liquid culture in PDB, growth inhibition measured photometrically 3 to 4 days after application, compared to untreated control, read-out: disease control. As for the experimental part:
Mycelia fragments or conidia suspensions of a fungus prepared either freshly from liquid cultures of the fungus or from cryogenic storage, are directly mixed into nutrient broth. DMSO solutions of the test compound (max. 10 mg/ml) are diluted with 0.025% Tween20 by a factor of 50 and 10 μl of this solution is pipetted into a microtiter plate (96-well format). The nutrient broth containing the fungal spores/mycelia fragments is then added to give an end concentration of the tested compound. The test plates are incubated in the dark at 24° C. and 96% relative humidity. The inhibition of fungal growth is determined photometrically after 2 to 7 days, depending on the pathosystem, and percent antifungal activity relative to the untreated check is calculated. Conidia of the fungus from cryogenic storage are directly mixed into nutrient broth (PDB—potato dextrose broth). After placing a (DMSO) solution of test compound into a microtiter plate (96-well format), the nutrient broth containing the fungal spores is added. The test plates are incubated at 24° C. and the inhibition of growth is measured photometrically 3 to 4 days after application.

Turning to `Fc1ccc(OCc2ccc(-c3noc(C(F)(F)F)n3)cc2)cc1` [Compound 1.6, 3-[4-[(4-fluorophenoxy)methyl]phenyl]-5-(trifluoromethyl)-1,2,4-oxadiazole], the melting point (commonly the temperature, or range, at which the solid turns liquid) lay in the range of 174 to 176 °C. Further, the pest or weed control at 200 ppm in data set [1] was at least 80%.
Turning to `FC(F)(F)c1nc(-c2ccc(COc3ccccc3)cc2)no1` [Compound 1.7, 3-[4-(phenoxymethyl)phenyl]-5-(trifluoromethyl)-1,2,4-oxadiazole], the melting point was 105 to 107 °C. Further, the pest or weed control at 200 ppm in data set [1] is at least 80%.
Consider `FC(F)(F)c1nc(-c2ccc(COc3ccccn3)cc2)no1` [Compound 1.9, 3-[4-(2-pyridyloxymethyl)phenyl]-5-(trifluoromethyl)-1,2,4-oxadiazole], for which the melting point was in the range of 86 to 88 °C. In data set [2], the pest or weed control at 200 ppm is at least 80%. Also, the inhibition of growth at 20 ppm in data set [3] was at least 80%. The pest or weed control at 200 ppm in data set [1] was at least 80%.
`Fc1cccc(F)c1OCc1ccc(-c2noc(C(F)(F)F)n2)cc1` [Compound 1.10, 3-[4-[(2,6-difluorophenoxy)methyl]phenyl]-5-(trifluoromethyl)-1,2,4-oxadiazole]: the melting point lay within 66 to 68 °C. In addition, the pest or weed control at 200 ppm in data set [1] is at least 80%.
Regarding `Fc1c(COc2ccccc2)ccc(-c2noc(C(F)(F)F)n2)c1F` [Compound 1.12, 3-[2,3-difluoro-4-(phenoxymethyl)phenyl]-5-(trifluoromethyl)-1,2,4-oxadiazole], the melting point lay within 113 to 115 °C.
Compound `N#Cc1ccc(OCc2ccc(-c3noc(C(F)(F)F)n3)cc2)nc1` [Compound 1.14, 6-[[4-[5-(trifluoromethyl)-1,2,4-oxadiazol-3-yl]phenyl]methoxy]pyridine-3-carbonitrile] showed a melting point of 156 to 158 °C. For the same compound, in data set [2], the pest or weed control at 200 ppm was at least 80%. The inhibition of growth at 20 ppm in data set [3] was at least 80%.
Turning to `Cc1ccc(OCc2ccc(-c3noc(C(F)(F)F)n3)cc2)nc1` [Compound 1.15, 3-[4-[(5-methyl-2-pyridyl)oxymethyl]phenyl]-5-(trifluoromethyl)-1,2,4-ioxadiazole], the melting point was 141 to 143 °C. Further, the pest or weed control at 200 ppm in data set [1] was at least 80%.
Consider `Cc1nnc(OCc2ccc(-c3noc(C(F)(F)F)n3)cc2)o1` [Compound 1.20, 2-methyl-5-[[4-[5-(trifluoromethyl)-1,2,4-oxadiazol-3-yl]phenyl]methoxy]-1,3,4-oxadiazole], for which, in data set [3], the inhibition of growth at 20 ppm was at least 80%.
The same measure, in the same setting: to `FC(F)(F)c1nc(-c2ccc(COc3ccc(Br)nn3)cc2)no1` [Compound 1.21, 3-[4-[(6-bromopyridazin-3-yl)oxymethyl]phenyl]-5-(trifluoromethyl)-1,2,4-oxadiazole] belongs at least 80%; to `Cc1cccc(OC(C)c2ccc(-c3noc(C(F)(F)F)n3)cc2)n1` (stereo not shown) [Compound 1.24, 3-[4-[1-[(6-methyl-2-pyridyl)oxy]ethyl]phenyl]-5-(trifluoromethyl)-1,2,4-oxadiazole], at least 80%.
`Cc1cccc(OCc2cc(F)c(-c3noc(C(F)(F)F)n3)c(F)c2)n1` [Compound 1.25, 3-[2,6-difluoro-4-[(6-methyl-2-pyridyl)oxymethyl]phenyl]-5-(trifluoromethyl)-1,2,4-oxadiazole] displayed a melting point of 65 to 66 °C. Further, in data set [3], the inhibition of growth at 20 ppm is at least 80%.
With `CC1(C)CC(OCc2cc(F)c(-c3noc(C(F)(F)F)n3)c(F)c2)=NO1` [Compound 1.26, 3-[4-[(5,5-dimethyl-4H-isoxazol-3-yl)oxymethyl]-2,6-difluoro-phenyl]-5-(trifluoromethyl)-1,2,4-oxadiazole], the pest or weed control at 200 ppm in data set [2] and in data set [1] was at least 80% throughout. Further, the inhibition of growth at 20 ppm in data set [3] is at least 80%.
`Cc1cccc(OCc2cc(F)c(-c3noc(C(F)(F)F)n3)cc2F)n1` [Compound 1.27, 3-[2,5-difluoro-4-[(6-methyl-2-pyridyl)oxymethyl]phenyl]-5-(trifluoromethyl)-1,2,4-oxadiazole]: the melting point lay within 91 to 94 °C.
Take `CC(=O)OCc1ccc(-c2noc(C(F)(F)F)n2)cc1` [Compound 2.1, [4-[5-(trifluoromethyl)-1,2,4-oxadiazol-3-yl]phenyl]methyl acetate]: the pest or weed control at 200 ppm in data set [2] was at least 80%. Besides, in data set [3], the inhibition of growth at 20 ppm was at least 80%.
`CC(C)C(=O)OCc1ccc(-c2noc(C(F)(F)F)n2)cc1` [Compound 2.2, [4-[5-(trifluoromethyl)-1,2,4-oxadiazol-3-yl]phenyl]methyl 2-methylpropanoate] displayed a melting point of 48 to 50 °C. Besides, the inhibition of growth at 20 ppm in data set [3] is at least 80%.
Turning to `CC(C)(C)C(=O)OCc1ccc(-c2noc(C(F)(F)F)n2)cc1` [Compound 2.3, [4-[5-(trifluoromethyl)-1,2,4-oxadiazol-3-yl]phenyl]methyl 2,2-dimethylpropanoate], the inhibition of growth at 20 ppm in data set [3] is at least 80%.
Take `O=C(NCC(F)(F)F)OCc1ccc(-c2noc(C(F)(F)F)n2)cc1` [Compound 3.3, [4-[5-(trifluoromethyl)-1,2,4-oxadiazol-3-yl]phenyl]methyl N-(2,2,2-trifluoroethyl)carbamate]: the pest or weed control at 200 ppm in data set [2] and in data set [1] was at least 80% in each case. In addition, the inhibition of growth at 20 ppm in data set [3] was at least 80%.
Take `CON(C)C(=O)OCc1ccc(-c2noc(C(F)(F)F)n2)cc1` [Compound 3.4, [4-[5-(trifluoromethyl)-1,2,4-oxadiazol-3-yl]phenyl]methyl N-methoxy-N-methyl-carbamate]: the inhibition of growth at 20 ppm in data set [3] was at least 80%.
Consider `CC(OC(=O)N(C)C)c1ccc(-c2noc(C(F)(F)F)n2)cc1` (stereo not shown) [Compound 3.5, 1-[4-[5-(trifluoromethyl)-1,2,4-oxadiazol-3-yl]phenyl]ethyl N,N-dimethylcarbamate], for which the pest or weed control at 200 ppm in data set [2] and in data set [1] was at least 80% in each case. Also, the inhibition of growth at 20 ppm in data set [3] is at least 80%.
`CN(C(=O)OCc1ccc(-c2noc(C(F)(F)F)n2)cc1)c1ccccn1` [Compound 3.6, [4-[5-(trifluoromethyl)-1,2,4-oxadiazol-3-yl]phenyl]methyl N-methyl-N-(2-pyridyl)carbamate] showed a melting point of 110 to 112 °C.
Take `CNC(=O)OCc1ccc(-c2noc(C(F)(F)F)n2)cc1` [Compound 3.7, [4-[5-(trifluoromethyl)-1,2,4-oxadiazol-3-yl]phenyl]methyl N-methylcarbamate]: the melting point lay within 100 to 102 °C.
Turning to `CC(C)=NOCc1ccc(-c2noc(C(F)(F)F)n2)cc1` [Compound 4.1, N-[[4-[5-(trifluoromethyl)-1,2,4-oxadiazol-3-yl]phenyl]methoxy]propan-2-imine], the melting point was 48 to 52 °C. Besides, the pest or weed control at 200 ppm in data set [1] was at least 80%.
`CC1=NN(C)C(=O)C1=NOCc1ccc(-c2noc(C(F)(F)F)n2)cc1` [Compound 4.4, 2,5-dimethyl-4-[[4-[5-(trifluoromethyl)-1,2,4-oxadiazol-3-yl]phenyl]methoxyimino]pyrazol-3-one] returned a melting point of 110 to 111 °C. The inhibition of growth at 20 ppm in data set [3] is at least 80%.
